Results published in patent US9717678B2, “Delivery systems for improving oral bioavailability of Fenobam, its hydrates, and salts” (MURTY PHARMACEUTICALS, INC., priority 2011, dated 2017).
Converted amounts (≈) assume the structure as drawn.

Experiment: Equilibrium solubility by HPLC
Format: physicochemical
[1] = comparative equilibrium solubility (Table 2), solvent 0.1 N HCl
[2] = comparative equilibrium solubility (Table 2), solvent PEG 400
[3] = comparative equilibrium solubility (Table 2), solvent Phosphate Buffer, pH 7.4

Structure (SMILES) | Solubility [1] | Solubility [2] | Solubility [3] | Solubility (equilibrium solubility, solvent 0.1 N HCl) | Solubility (equilibrium solubility, solvent 10% Cremophor RH 40) | Solubility (equilibrium solubility, solvent 10% Polysorbate 80) | Solubility (equilibrium solubility, solvent 20% Polyethylene Glycol (PEG) 400) | Solubility (equilibrium solubility, solvent 20% Propylene Glycol) | Solubility (equilibrium solubility, solvent 30% HP-Beta-Cyclodextrin) | Solubility (equilibrium solubility, solvent Acetate Buffer, pH 4.0) | Solubility (equilibrium solubility, solvent Ethanol) | Solubility (equilibrium solubility, solvent Phosphate Buffer, pH 7.4) | Solubility (equilibrium solubility, solvent Polyethylene Glycol (PEG) 400) | Solubility (equilibrium solubility, solvent Propylene Glycol)
CN1CC(=O)N/C1=N\C(=O)Nc1cccc(Cl)c1.O [Fenobam Monohydrate] | 0.308 mg/mL | 34.5 mg/mL | 0.039 mg/mL |  |  |  |  |  |  |  |  |  |  | 
CN1CC(=O)N=C1NC(=O)Nc1cccc(Cl)c1.O=S(=O)(O)O [Fenobam Sulfate] | 0.303 mg/mL | 5.65 mg/mL | 0.027 mg/mL |  |  |  |  |  |  |  |  |  |  | 
CN1CC(=O)NC1=NC(=O)Nc1cccc(Cl)c1 [Fenobam] | 0.392 mg/mL (≈ 1470 µM) | 24.4 mg/mL (≈ 91500 µM) | 0.033 mg/mL (≈ 124 µM) | 0.392 mg/mL (≈ 1470 µM) | 0.643 mg/mL (≈ 2410 µM) | 1.19 mg/mL (≈ 4460 µM) | 0.124 mg/mL (≈ 465 µM) | 0.065 mg/mL (≈ 244 µM) | 2.19 mg/mL (≈ 8210 µM) | 0.025 mg/mL (≈ 93.7 µM) | 2.90 mg/mL (≈ 10900 µM) | 0.033 mg/mL (≈ 124 µM) | 24.4 mg/mL (≈ 91500 µM) | 4.46 mg/mL (≈ 16700 µM)
